This is an account of results in US10766888B1, “HMOX1 inducers” (Mitobridge Inc., priority 2019, dated 2020).

Data set [1] in a line: Kinetic solubility. Type of data set: physicochemical. Conditions: Dulbecco's phosphate buffer saline (DPBS), aqueous buffer, kinetic from dmso stock, DPBS pH 7.4, 25° C., 200 μM test compound. The procedure, abridged:
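Compound from 10 mM DMSO stock diluted to 200 μM final in DPBS pH 7.4 and, separately, in DMSO, in duplicate. Shaken 16 h at 25 °C, then centrifuged 20 min at 25 °C. Supernatant analysed by HPLC.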

For data set [2], the system named is FTH1. As to the kind of experiment: FTH1 mRNA expression in HepG2 cells (Nanostring). In kind it is cell-based, human. The settings on record: 24 hours treatment. As for the experimental part:
RNA Isolation and Quantification of Gene Expression
HepG2 cells were seeded at 250 k/well in 12-well tissue culture plates coated with collagen (collagen I, rat tail (thin plate coating); ENZO Life Sciences) for approximately 24 hours. The seeded cells were then treated with dose titration of the compound of Example 17 or dimethyl fumarate (DMF) (a Nrf2 activator; Fisher Scientific) via media change, with biological triplicates performed for each treatment. After approximately 24 hours of treatment, cells were visually inspected to confirm that no toxicity occurred with compound treatment. The treated cells were washed with PBS, aspirated, parafilmed and frozen at −80° C. prior to RNA isolation. RNA was isolated using Machery-Nagel isolation kit (NucleoSpin® RNA: catalog 740955.250) and then quantitated using ThermoFisher Nanodrop.
RNA was diluted for Nanostring gene expression analysis. The diluted RNA at an input of 200 ng RNA was run on a Nanostring instrument, which was supported with nCounter® SPRINT Profiler System and nSolver4.0 Software, nCounter® SPRINT Cartridge, nCounter® SPRINT Reagent Pack, and nCounter® SPRINT Hybridization Buffer. Analysis was done manually using raw data obtained from nSolver4.0 Software. CLTC, POLR2A, RPL27 and TBP were used as reference genes for normalization. Data was graphed as fold change compared to DMSO treatment. […]

For data set [3], the target named is hERG channel (Homo sapiens, UniProt Q12809). Put plainly: hERG manual patch clamp assay. Type of data set: cell-based. The settings on record: HEK 293 cells stably expressing hERG channel, pH 7.35, 10 μM compound. The procedure, abridged:
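Whole-cell manual patch clamp on doxycycline-induced HEK293 cells stably expressing hERG. Tail current measured at −50 mV after a 4.8 s step to +30 mV from −90 mV holding; test compounds at 10 μM, 0.1% DMSO, vs vehicle baseline. Percent inhibition from peak tail current, […].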
Background: The hERG channel carries a current that helps repolarise heart muscle cells.

In brackets after ≈: the same amount, converted by molar mass.

Chain of hERG channel (Q12809 whole entry): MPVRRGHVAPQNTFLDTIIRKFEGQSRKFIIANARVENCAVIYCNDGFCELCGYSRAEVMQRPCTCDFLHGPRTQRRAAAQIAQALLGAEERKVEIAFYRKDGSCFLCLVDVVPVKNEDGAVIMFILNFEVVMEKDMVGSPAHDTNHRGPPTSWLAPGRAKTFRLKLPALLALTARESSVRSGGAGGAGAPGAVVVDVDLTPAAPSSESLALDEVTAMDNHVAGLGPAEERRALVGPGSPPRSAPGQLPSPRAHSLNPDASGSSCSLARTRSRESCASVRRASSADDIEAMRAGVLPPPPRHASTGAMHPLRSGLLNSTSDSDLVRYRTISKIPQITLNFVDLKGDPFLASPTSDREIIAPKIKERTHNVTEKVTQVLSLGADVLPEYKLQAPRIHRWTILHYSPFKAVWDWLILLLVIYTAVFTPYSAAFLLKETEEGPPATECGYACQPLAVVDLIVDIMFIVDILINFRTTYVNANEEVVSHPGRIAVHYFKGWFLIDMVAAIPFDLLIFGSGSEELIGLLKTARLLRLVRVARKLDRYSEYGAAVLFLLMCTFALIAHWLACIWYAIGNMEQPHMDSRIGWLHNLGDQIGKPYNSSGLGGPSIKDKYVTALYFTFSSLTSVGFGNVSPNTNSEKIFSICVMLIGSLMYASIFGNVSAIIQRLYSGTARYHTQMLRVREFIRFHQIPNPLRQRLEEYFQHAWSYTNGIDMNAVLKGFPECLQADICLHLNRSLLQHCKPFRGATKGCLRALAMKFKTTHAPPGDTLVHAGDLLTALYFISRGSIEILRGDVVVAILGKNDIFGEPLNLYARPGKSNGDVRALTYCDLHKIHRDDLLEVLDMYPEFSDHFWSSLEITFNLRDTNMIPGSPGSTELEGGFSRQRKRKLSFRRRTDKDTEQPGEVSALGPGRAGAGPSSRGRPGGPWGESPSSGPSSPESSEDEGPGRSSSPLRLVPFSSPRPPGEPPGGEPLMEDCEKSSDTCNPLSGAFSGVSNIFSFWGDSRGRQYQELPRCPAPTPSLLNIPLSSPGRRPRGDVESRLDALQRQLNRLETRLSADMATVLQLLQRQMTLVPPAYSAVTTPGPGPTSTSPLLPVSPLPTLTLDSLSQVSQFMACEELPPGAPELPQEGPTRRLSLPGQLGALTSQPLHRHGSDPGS

Consider `Cn1c(Nc2nc3ccccc3o2)nc2cc(C(=O)NCCOCCO)ccc21` [Example 17, 2-(benzo[d]oxazol-2-ylamino)-N-(2-(2-hydroxyethoxy)ethyl)-1-methyl-1H-benzo[d]imidazole-5-carboxamide], for which the solubility (usually the dissolved amount per volume that the medium holds) at 16 h in data set [1] amounted to 11.6 µM (≈ 4.59 µg/mL). In addition, in data set [2], the “FTH1 expression fold increase (in words)” value is given as “comparable fold increases”. Moreover, the inhibition (usually how much of the control response was suppressed) at 10 µM in data set [3] was determined as 16%.
In turn, `COCCNC(=O)c1ccc2c(c1)nc(Nc1nc3ccc(OCCOC)cc3o1)n2C` [Example 56, 2-((6-(2-methoxyethoxy)benzo[d]oxazol-2-yl)amino)-N-(2-methoxyethyl)-1-methyl-1H-benzo[d]imidazole-5-carboxamide] gave a solubility at 16 h in data set [1] of 9.7 µM (≈ 4.26 µg/mL). The same compound displayed an inhibition at 10 µM in data set [3] of 35%.
